Legend:
CYP24 promoter = experiment: CYP24-Luc reporter in HaCaT keratinocytes; type: cell-based, human
From the text: Construct CYP24-Luc and VDRE-Luc constructs were a generous gift from Dr. Tai Cheng, Ph.D. (Boston University Medical Campus, Core Lab Director). It was originally developed by Vaisanen et al. (27). PLuc and NFκB-Luc construct was described previously (28-29). huVDR construct was a generous gift from Dr. D. Bikle. HaCaT keratinocytes were transfected with NFκB-Luc, CYP-24-Luc, VDRE-Luc and hVDR constructs using Lipofectamine Plus (Invitrogen, Carlsbad, Calif.) in DMEM medium with firefly luciferase reporter gene plasmid and with phRL-TK.
HaCaT keratinocytes were transfected with NFκB-Luc construct using Lipofectamine Plus (Invitrogen, Carlsbad, Calif.) in DMEM medium with firefly luciferase reporter gene plasmid and with phRL-TK (expresses Renilla luciferase and serves as normalization control; Promega, Madison, Wis.). After transfection cells were incubated for 24 h in complete medium, and then after change to fresh media treated with drug or vehicle (ethanol) at the concentration of 10 nM for 30 minutes, 1 h, 4 h, 16 h and 24 h. The firefly luciferase and Renilla luciferase signals were recorded with a TD-20/20 luminometer (Turner Designs, Sunnyvale, Calif.); background luminescence was subtracted and the resulting promoter specific firefly signal was divided by the Renilla signal (proportional to the number of transfected cells). The values obtained were divided by the mean of control (untreated) cells.

HaCaT keratinocytes = experiment: Forward and side scatter (cell size, granularity) of HaCaT keratinocytes; type: cell-based, human; conditions: for Forward scatter [mean signal intensity] / Side scatter [mean signal intensity]: HaCaT keratinocytes, 10^−8 M, 24 h; for Forward scatter [mean signal intensity]: reflects cell size; for Side scatter [mean signal intensity]: reflects granularity; for forward and side scatter: result in words (Table 13)
Procedure: The FL-1 signal (collected from 10,000 events in side scatter/forward scatter window after debris exclusion) was recorded. Forward (relative to cell size) and side (relative to cell granularity) scatter histograms were generated and mean signal intensity was recorded. FL-1 signal values are presented as dMFI (difference between mean fluorescence intensity of sample stained with specific and isotype control antibody). Scatter signal values are presented as MSI (mean signal intensity). Signal intensities were analyzed with Cell Quest (BD Biosciences, San Diego, Calif.) and graphical representations of the FL-1 signal were prepared with WinMdi 2.8 (shareware from Joseph Trotter, The Scripps Research Institute, San Diego, Calif.).

involucrin = experiment: Involucrin protein expression in HaCaT (flow cytometry, microscopy); type: cell-based, human; conditions: 24 h; for expression of involucrin: 10 nM; for increase in the expression of involucrin: flow cytometry
[1] = test system: anti-CD3 stimulated DBA/1 Lac J spleen cells; experiment: Cytokine/chemokine production by anti-CD3 stimulated spleen cells (Luminex); type: cell-based, mouse; conditions: 5 days; for G-CSF / GM-CSF / IFNγ / IL-1α / IL-6 / IL-10 / IL-17 / IP-10 / KC / MCP-1: spleen cells + anti-CD3 (4 μg/ml) + analogue 10^−7 M, supernatant, one mouse; for Th2 cytokine (IL-10) production: anti-CD3, 10^−7 M
Procedure: Vitamin D analogues were solubilzed in absolute alcohol (EtOH) and added at 1:100 dilution to cultures of spleen cells from normal DBA/1 Lac J mice (Table 13). […] Therefore, changes are not due to decreased cell viability.
Spleen cells from three normal 8 wk old female DBA/1 Lac J mice were cultured in 96 well tissue culture plates in quadruplicate at 2×10^6 cells/ml in RPMI 1640 medium containing 9% FCS with and without anti-CD3 (4 μg/ml) and with anti-CD3+10^−7M natural vitamin D analogues for 5 days after which time supernatants were harvested and subjected to cytokine multiplex on a Luminex instrument using Milliplex Mouse Kit (values are pg/ml). The general trend in changes in cytokine levels were similar for each of the mice but some produced different levels of each cytokine for each culture additions. Data from one mouse are given and bold numbers indicate those that changed from anti-CD3 stimulated culture with vitamin D analogues added. There was no significant stimulation of IL-1 g, IL-2, IL-4, IL-5, IL-7, IL-9, IL-12 p70, IL-13, IL-15, MIP-2, RANTES or TNFα with the anti-CD3 MOAB.

Human dermal fibroblasts = experiment: TGF-b1 induced collagen protein production by dermal fibroblasts; type: cell-based; conditions: collagenase sensitive protein; for TGF-b1 induced collagen protein production: [3H]-proline
Procedure: Human dermal fibroblasts grown from explant skin cultures at less than 10 subpassages were plated at 5×10^4 cells per well in 24 well Costar tissue culture plates and were grown to confluency. Complete MEM was then changed to serum free Complete MEM without non-essential amino acids. After 24 hours, culture medium was changed (450 μl/well) to the same and secosteroids listed in Table 14 were added in 10 μl absolute alcohol (ETOH) to a final concentration of 10^−9 and M, 3 replicate wells each. Vehicle control wells (n=6) contained 10 μl (ETOH). After 2 hour pre-incubation, hr TGF-b1 (R and D systems) was added to each well except ETOH wells at a final concentration of 5 ng/ml. After 48 hours of culture, plate wells were paused with 1μ Cl ^3[H]-proline. After 24 hours, culture supernatants were harvested and collagenase sensitive protein was determined as previously described (44).

[2] = HaCaT, 20-hydroxycholecalciferol at 0.1 nM

Row | Compound | CYP24 promoter activity (CYP24 promoter) | Forward scatter [mean signal intensity] (HaCaT keratinocytes) | Side scatter [mean signal intensity] (HaCaT keratinocytes) | forward and side scatter (HaCaT keratinocytes; HaCaT) | side scatter, mean signal intensity (MSI) (HaCaT keratinocytes; [2]) | expression of involucrin (involucrin) | increase in the expression of involucrin (involucrin; 10^−8 M) | G-CSF [1] [pg/mL] | GM-CSF [1] [pg/mL] | IFNγ [1] [pg/mL] | IL-1α [1] [pg/mL] | IL-6 [1] [pg/mL] | IL-10 [1] [pg/mL] | IL-17 [1] [pg/mL] | IP-10 [1] [pg/mL] | KC [1] [pg/mL] | MCP-1 [1] [pg/mL] | TGF-b1 induced collagen protein production (Human dermal fibroblasts) | Th2 cytokine (IL-10) production [1] | also measured
1 | C=C1/C(=C\C=C2/CCC[C@]3(C)[C@@H]([C@H](C)CCCC(C)(C)O)CC[C@@H]23)C[C@@H](O)C[C@@H]1O [1α,25-dihydroxycholecalciferol, (5Z,7E)-9,10-secocholesta-5,7,10(19)-triene-1α,3β,25-triol, reference compound] | stimulated transcriptional activity of CYP24 promoter | 122.12 ± 23.98 | 143.46 ± 15.76 | only the effect on forward scatter was statistically significant | 219±4 | increase of expression of involucrin | negligible | 11 | 7 | 0 | 1 | 12 | 1 | 1 | 5 | 3 | 197 | inhibited TGF-b1 induced collagen protein production | – | –
2 | C=C1CC[C@H](O)C/C1=C/C=C1\CCC[C@@]2(C)[C@H]1CC[C@@H]2[C@@](C)(O)CCCC(C)C [20(OH)D3, (5Z,7E)-9,10-secocholesta-5,7,10(19)-triene-3β,20-diol] | failed to stimulate the CYP24 promoter activity | – | – | – | 210±6 | – | ~3.7 fold | 10 | 51 | 494 | 8 | 55 | 37 | 59 | 83 | 39 | 100 | inhibited TGF-b1 induced collagen protein production | increased | forward scatter, mean signal intensity (MSI) (HaCaT keratinocytes; [2]): 251±2; involucrin dMFI (involucrin; 10^−8 M): 71±8
3 | C=C1CC[C@H](O)C/C1=C/C=C1\CCC[C@]2(C)[C@@H](C(C)(O)CC(O)CC(C)C)CC[C@@H]12 (stereo partly drawn) [20,23-dihydroxycholecalciferol, (5Z,7E)-9,10-secocholesta-5,7,10(19)-triene-3β,20,23-triol] | stimulated activity of CYP24 promoter poorly | 87.74 ± 29.18 | 154.4 ± 30 | increased significantly both forward and side scatter | – | stimulated expression of involucrin gene | – | 103 | 47 | 271 | 11 | 40 | 56 | 57 | 96 | 47 | 182 | – | increased | –
4 | C=C1CC[C@H](O)C/C1=C/C=C1\CCC[C@]2(C)[C@@H](C(C)=O)CC[C@@H]12 [pD3, (5Z,7E)-3β-hydroxy-9,10-secopregna-5,7,10(19)-trien-20-one] | – | – | – | – | – | – | – | – | – | – | – | – | – | – | – | – | – | inhibited TGF-b1 induced collagen protein production | – | Collagen CPM/Well (mean ± SEM) × 10^−5 FB (Human dermal fibroblasts; hrTGF-b1 5 ng/ml, secosteroids at 10^−10M, 3[H]-proline): 181 ± 14 CPM/Well × 10^−5 FB
